This note sets out measurements from patent publication US10370348B2, “Tocopherol and tocopheryl quinone derivatives as correctors of lysosomal storage disorders” (The United States of America, as represented by the …, priority 2012, dated 2019).

The test system of this assay is wild type cells. Description: Reduction of cholesterol levels in wild type cells. It is filed as cell-based. The settings on record: with increasing concentration, FIG. 1A. Here is the method: The half maximal effective concentration (EC-50) for delta-tocopherol and five analogues was measured in wild type and NPC 3123 cells. […] Further, in NPC cells (FIG. 1B), the cholesterol level drop was substantial relative to the control (no delta-tocopherol).

`Cc1cc(O)cc2c1O[C@](C)(CCC[C@H](C)CCC[C@H](C)CCCC(C)C)CC2` [delta-tocopherol]: the “cholesterol levels in wild type cells” value is reported as “cholesterol levels dropped”.
